# Tests used:
# [1] = target: T1, dhPPase (Desulfitobacterium hafniense CBS-PPase) (Desulfitobacterium hafniense, UniProt B8FP42); test: isothermal titration calorimetry, single-binding-site model; conditions: read-out: KN
# T1 construct: gene Dhaf_1515; full-length, tag-less, recombinant in E. coli BL21 (pET-42b); homotetramer
# T1 sequence (B8FP42 1-544): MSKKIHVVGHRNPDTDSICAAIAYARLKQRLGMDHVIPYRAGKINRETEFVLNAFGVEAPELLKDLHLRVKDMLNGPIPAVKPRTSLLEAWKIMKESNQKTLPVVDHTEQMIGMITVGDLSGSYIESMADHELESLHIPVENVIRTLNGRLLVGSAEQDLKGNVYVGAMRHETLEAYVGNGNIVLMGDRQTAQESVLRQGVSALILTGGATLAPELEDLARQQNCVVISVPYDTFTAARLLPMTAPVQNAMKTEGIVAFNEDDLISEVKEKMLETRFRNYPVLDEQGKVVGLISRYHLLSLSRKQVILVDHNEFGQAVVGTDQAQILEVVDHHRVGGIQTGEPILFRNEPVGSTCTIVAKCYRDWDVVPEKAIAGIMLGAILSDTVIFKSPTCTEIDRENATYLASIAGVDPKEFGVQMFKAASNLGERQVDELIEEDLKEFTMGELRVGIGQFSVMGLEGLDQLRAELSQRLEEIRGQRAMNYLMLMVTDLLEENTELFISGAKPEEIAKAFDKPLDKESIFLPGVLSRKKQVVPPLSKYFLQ
# Source text: (§1) isothermal titration calorimetry, single-binding-site model on dhPPase (Desulfitobacterium hafniense CBS-PPase)
# [2] = target: T2, dhPPase (Desulfitobacterium hafniense CBS-PPase) (Desulfitobacterium hafniense, UniProt B8FP42, E126A); test: as above; conditions: read-out: KN
# T2 construct: gene Dhaf_1515; full-length, tag-less, recombinant in E. coli BL21 (pET-42b); homotetramer
# Source text: as §1
# [3] = target: T3, dhPPase (Desulfitobacterium hafniense CBS-PPase) (Desulfitobacterium hafniense, UniProt B8FP42, K100A); test: as above; conditions: read-out: KN
# T3 construct: gene Dhaf_1515; full-length, tag-less, recombinant in E. coli BL21 (pET-42b); homotetramer
# Source text: as §1
# [4] = target: T4, dhPPase (Desulfitobacterium hafniense CBS-PPase) (Desulfitobacterium hafniense, UniProt B8FP42, G118A); test: as above; conditions: read-out: KN
# T4 construct: gene Dhaf_1515; full-length, tag-less, recombinant in E. coli BL21 (pET-42b); homotetramer
# Source text: as §1
# [5] = target: T5, dhPPase (Desulfitobacterium hafniense CBS-PPase) (Desulfitobacterium hafniense, UniProt B8FP42, G118M); test: as above; conditions: read-out: KN
# T5 construct: gene Dhaf_1515; full-length, tag-less, recombinant in E. coli BL21 (pET-42b); homotetramer
# Source text: as §1
# [6] = target: T6, dhPPase (Desulfitobacterium hafniense CBS-PPase) (Desulfitobacterium hafniense, UniProt B8FP42, K95A); test: as above; conditions: read-out: KN
# T6 construct: gene Dhaf_1515; full-length, tag-less, recombinant in E. coli BL21 (pET-42b); homotetramer
# Source text: as §1
# [7] = target: T1, dhPPase (Desulfitobacterium hafniense CBS-PPase); test: continuous Pi assay; format: biochemical; conditions: pH 7.2, 25 °C, 5.23 mM MgCl2, 140 µM PPi
# [8] = target: T5, dhPPase (Desulfitobacterium hafniense CBS-PPase); test: activation of PPi hydrolysis, continuous Pi assay, Hill fit; format: biochemical; conditions: read-out: Adenosine Phosphate and Parameter Value ^a / Ap4A / K
# Source text: (§2) activation of PPi hydrolysis, continuous Pi assay, Hill fit on dhPPase (Desulfitobacterium hafniense CBS-PPase)
# [9] = target: T3, dhPPase (Desulfitobacterium hafniense CBS-PPase); test: as above; format: biochemical; conditions: read-out: Adenosine Phosphate and Parameter Value ^a / Ap4A / K
# Source text: as §2
# [10] = target: T7, dhPPase (Desulfitobacterium hafniense CBS-PPase) (Desulfitobacterium hafniense, UniProt B8FP42, V117A); test: as above; format: biochemical; conditions: read-out: Adenosine Phosphate and Parameter Value ^a / Ap4A / K
# T7 construct: gene Dhaf_1515; full-length, tag-less, recombinant in E. coli BL21 (pET-42b); homotetramer
# Source text: as §2
# [11] = target: T8, dhPPase (Desulfitobacterium hafniense CBS-PPase) (Desulfitobacterium hafniense, UniProt B8FP42, V117T); test: as above; format: biochemical; conditions: read-out: Adenosine Phosphate and Parameter Value ^a / Ap4A / K
# T8 construct: gene Dhaf_1515; full-length, tag-less, recombinant in E. coli BL21 (pET-42b); homotetramer
# Source text: as §2
# T3 sequence (B8FP42 entry or part of it K100A): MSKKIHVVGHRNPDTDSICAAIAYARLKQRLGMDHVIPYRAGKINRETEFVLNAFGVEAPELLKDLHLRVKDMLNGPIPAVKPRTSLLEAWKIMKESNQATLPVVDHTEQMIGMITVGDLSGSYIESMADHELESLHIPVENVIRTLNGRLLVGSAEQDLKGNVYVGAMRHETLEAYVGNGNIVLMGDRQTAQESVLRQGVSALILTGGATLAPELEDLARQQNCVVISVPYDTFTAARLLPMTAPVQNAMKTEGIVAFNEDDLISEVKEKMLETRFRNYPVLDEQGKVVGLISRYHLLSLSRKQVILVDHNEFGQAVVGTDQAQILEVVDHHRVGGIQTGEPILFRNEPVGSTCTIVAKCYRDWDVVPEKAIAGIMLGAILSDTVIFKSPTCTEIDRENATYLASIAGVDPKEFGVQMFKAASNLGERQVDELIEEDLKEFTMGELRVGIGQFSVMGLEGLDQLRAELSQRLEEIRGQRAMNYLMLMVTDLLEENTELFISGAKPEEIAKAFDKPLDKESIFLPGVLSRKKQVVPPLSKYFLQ
# T5 sequence (B8FP42 entry or part of it G118M): as the sequence (B8FP42 entry or part of it K100A) above, with A100K, G118M counted along it
# T8 sequence (B8FP42 entry or part of it V117T): as the sequence (B8FP42 entry or part of it K100A) above, with A100K, V117T counted along it
# T4 sequence (B8FP42 entry or part of it G118A): as the sequence (B8FP42 entry or part of it K100A) above, with A100K, G118A counted along it
# T6 sequence (B8FP42 entry or part of it K95A): as the sequence (B8FP42 entry or part of it K100A) above, with K95A, A100K counted along it
# T2 sequence (B8FP42 entry or part of it E126A): as the sequence (B8FP42 entry or part of it K100A) above, with A100K, E126A counted along it
# T7 sequence (B8FP42 entry or part of it V117A): as the sequence (B8FP42 entry or part of it K100A) above, with A100K, V117A counted along it
compound,measurement,setting,value
Nc1ncnc2c1ncn2[C@@H]1O[C@H](COP(=O)(O)OP(=O)(O)O)[C@@H](O)[C@H]1O [ADP],Kd,[1],1 ± 0.2 µM
same,Kd,[2],0.6 ± 0.1 µM
same,Kd,[3],6 ± 2 µM
Nc1ncnc2c1ncn2[C@@H]1O[C@H](COP(=O)(O)OP(=O)(O)OP(=O)(O)O)[C@@H](O)[C@H]1O [ATP],Kd,[1],2.1 ± 0.3 µM
Nc1ncnc2c1ncn2[C@@H]1O[C@H](COP(=O)(O)O)[C@@H](O)[C@H]1O [AMP],Kd,[1],0.8 ± 0.3 µM
same,Kd,[4],4.2 ± 0.6 µM
same,Kd,[5],0.52 ± 0.07 µM
same,Kd,[3],1.3 ± 0.2 µM
same,Kd,[6],4.6 ± 0.7 µM
O=P(O)(O)OP(=O)(O)O [PPi],continuous Pi assay,[7],The initial rates of PPi hydrolysis were measured using a continuous Pi assay
Nc1ncnc2c1ncn2[C@@H]1O[C@H](COP(=O)(O)OP(=O)(O)OP(=O)(O)OP(=O)(O)OC[C@H]2O[C@@H](n3cnc4c(N)ncnc43)[C@H](O)[C@@H]2O)[C@@H](O)[C@H]1O [Ap4A],EC50,[8],0.028 ± 0.001 µM
same,EC50,[9],0.0115 ± 0.0001 µM
same,EC50,[10],0.12 ± 0.01 µM
same,EC50,[11],0.0013 ± 5e-05 µM

# — article PMC11172384, “Specific Mutations Reverse Regulatory Effects of Adenosine Phosphates and Increase Their Binding Stoichiometry in CBS Domain-Containing Pyrophosphatase” (International Journal of Molecular Sciences, 2024)
